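Tested at 5 concentrations; 48 h exposure; 96-well plates; endpoints linearly interpolated, else capped at highest concentration. GI50 marks 50% less growth. TGI marks complete inhibition of growth.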
Key:
Experiment in all cases: growth of human tumour cells (NCI), 48 h
SK-MEL-2 melanoma = test system: SK-MEL-2 melanoma
786-0 renal = test system: 786-0 renal
HL-60(TB) leukemia = test system: HL-60(TB) leukemia
SK-MEL-28 melanoma = test system: SK-MEL-28 melanoma
MOLT-4 leukemia = test system: MOLT-4 leukemia
MDA-MB-435 = test system: MDA-MB-435
HCT-116 colon = test system: HCT-116 colon
BT-549 breast = test system: BT-549 breast
M14 melanoma = test system: M14 melanoma
NCI-H522 lung = test system: NCI-H522 lung
RPMI-8226 leukemia = test system: RPMI-8226 leukemia
HOP-62 NSCLC = test system: HOP-62 NSCLC
CAKI-1 renal = test system: CAKI-1 renal
UACC-62 melanoma = test system: UACC-62 melanoma
PC-3 prostate = test system: PC-3 prostate
HOP-92 NSCLC = test system: HOP-92 NSCLC
KM12 colon = test system: KM12 colon
MALME-3M melanoma = test system: MALME-3M melanoma
HT29 colon = test system: HT29 colon
OVCAR-4 ovarian = test system: OVCAR-4 ovarian
SK-OV-3 ovarian = test system: SK-OV-3 ovarian
SF-268 CNS = test system: SF-268 CNS
OVCAR-5 ovarian = test system: OVCAR-5 ovarian
EKVX NSCLC = test system: EKVX NSCLC
IGROV1 ovarian = test system: IGROV1 ovarian
UO-31 renal = test system: UO-31 renal
SN12C renal = test system: SN12C renal
NCI-H226 lung = test system: NCI-H226 lung
U251 CNS = test system: U251 CNS
HS 578T breast = test system: HS 578T breast
T-47D breast = test system: T-47D breast
MCF7 breast = test system: MCF7 breast
CCRF-CEM leukemia = test system: CCRF-CEM leukemia
SF-295 CNS = test system: SF-295 CNS
A549 NSCLC = test system: A549 NSCLC
ACHN renal = test system: ACHN renal
HCT-15 colon = test system: HCT-15 colon
OVCAR-8 ovarian = test system: OVCAR-8 ovarian
OVCAR-3 ovarian = test system: OVCAR-3 ovarian
SW-620 colon = test system: SW-620 colon
SR leukemia = test system: SR leukemia
DU-145 prostate = test system: DU-145 prostate
SNB-75 CNS = test system: SNB-75 CNS
NCI-H23 lung = test system: NCI-H23 lung
HCC-2998 colon = test system: HCC-2998 colon
NCI/ADR-RES ovarian = test system: NCI/ADR-RES ovarian
RXF 393 renal = test system: RXF 393 renal
TK-10 renal = test system: TK-10 renal
LOX IMVI melanoma = test system: LOX IMVI melanoma
MDA-MB-231 breast = test system: MDA-MB-231 breast
NCI-H460 lung = test system: NCI-H460 lung
K-562 leukemia = test system: K-562 leukemia
UACC-257 melanoma = test system: UACC-257 melanoma
SK-MEL-5 melanoma = test system: SK-MEL-5 melanoma
SNB-19 CNS = test system: SNB-19 CNS
SF-539 CNS = test system: SF-539 CNS
A498 renal = test system: A498 renal
COLO 205 colon = test system: COLO 205 colon

O=C(NN1C(=O)CSC1c1ccc(Cl)cc1)c1[nH]c2ccc(F)cc2c1-c1ccccc1 (stereo unspecified)
GI50 (SK-MEL-2 melanoma): 9.61 µM | TGI (SK-MEL-2 melanoma): 26.3 µM | GI50 (786-0 renal): 1.89 µM | TGI (786-0 renal): 3.6 µM | GI50 (HL-60(TB) leukemia): 2.75 µM | TGI (HL-60(TB) leukemia): 7.71 µM | GI50 (SK-MEL-28 melanoma): 3.23 µM | TGI (SK-MEL-28 melanoma): 10.1 µM | GI50 (MOLT-4 leukemia): 2.4 µM | TGI (MOLT-4 leukemia): 8.17 µM | GI50 (MDA-MB-435): 2.94 µM | TGI (MDA-MB-435): 9.13 µM | GI50 (HCT-116 colon): 1.87 µM | TGI (HCT-116 colon): 4.11 µM | GI50 (BT-549 breast): 2.09 µM | TGI (BT-549 breast): 5.37 µM | GI50 (M14 melanoma): 2.5 µM | TGI (M14 melanoma): 6.45 µM | GI50 (NCI-H522 lung): 4.34 µM | TGI (NCI-H522 lung): 14.8 µM | GI50 (RPMI-8226 leukemia): 2.13 µM | TGI (RPMI-8226 leukemia): 6.24 µM | GI50 (HOP-62 NSCLC): 2.34 µM | TGI (HOP-62 NSCLC): 5.55 µM | GI50 (CAKI-1 renal): 5.07 µM | TGI (CAKI-1 renal): 17.2 µM | GI50 (UACC-62 melanoma): 5.38 µM | TGI (UACC-62 melanoma): 17.3 µM | GI50 (PC-3 prostate): 2.72 µM | TGI (PC-3 prostate): 8.89 µM | GI50 (HOP-92 NSCLC): 2.42 µM | TGI (HOP-92 NSCLC): 6.6 µM | GI50 (KM12 colon): 1.61 µM | TGI (KM12 colon): 3.38 µM | GI50 (MALME-3M melanoma): 6.03 µM | TGI (MALME-3M melanoma): > 42.8 µM | GI50 (HT29 colon): 3.09 µM | TGI (HT29 colon): 10.5 µM | GI50 (OVCAR-4 ovarian): 6.3 µM | TGI (OVCAR-4 ovarian): 24 µM | GI50 (SK-OV-3 ovarian): 7.25 µM | TGI (SK-OV-3 ovarian): 20 µM | GI50 (SF-268 CNS): 2.51 µM | TGI (SF-268 CNS): 7.19 µM | GI50 (OVCAR-5 ovarian): 2.64 µM | TGI (OVCAR-5 ovarian): 8.34 µM | GI50 (EKVX NSCLC): 6.23 µM | TGI (EKVX NSCLC): 24.8 µM | GI50 (IGROV1 ovarian): 3.89 µM | TGI (IGROV1 ovarian): 11.5 µM | GI50 (UO-31 renal): 4.07 µM | TGI (UO-31 renal): 13.7 µM | GI50 (SN12C renal): 2.87 µM | TGI (SN12C renal): 7.84 µM | GI50 (NCI-H226 lung): 3.51 µM | TGI (NCI-H226 lung): 9.43 µM | GI50 (U251 CNS): 3.14 µM | TGI (U251 CNS): 8.38 µM | GI50 (HS 578T breast): 2.84 µM | TGI (HS 578T breast): 9.37 µM | GI50 (T-47D breast): 3.73 µM | TGI (T-47D breast): 14.2 µM | GI50 (MCF7 breast): 2.85 µM | TGI (MCF7 breast): 8.58 µM | GI50 (CCRF-CEM leukemia): 2.17 µM | TGI (CCRF-CEM leukemia): 5.85 µM | GI50 (SF-295 CNS): 2.86 µM | TGI (SF-295 CNS): 11.4 µM | GI50 (A549 NSCLC): 3.58 µM | TGI (A549 NSCLC): 15.6 µM | GI50 (ACHN renal): 3.28 µM | TGI (ACHN renal): 12.2 µM | GI50 (HCT-15 colon): 3.9 µM | TGI (HCT-15 colon): 14.3 µM | GI50 (OVCAR-8 ovarian): 4.34 µM | TGI (OVCAR-8 ovarian): 20.6 µM | GI50 (OVCAR-3 ovarian): 1.85 µM | TGI (OVCAR-3 ovarian): 3.53 µM | GI50 (SW-620 colon): 2.98 µM | TGI (SW-620 colon): 8.92 µM | GI50 (SR leukemia): 2.27 µM | TGI (SR leukemia): 6.27 µM | GI50 (DU-145 prostate): 2.2 µM | TGI (DU-145 prostate): 4.63 µM | GI50 (SNB-75 CNS): 5.04 µM | TGI (SNB-75 CNS): 21 µM | GI50 (NCI-H23 lung): 2.26 µM | TGI (NCI-H23 lung): 6.59 µM | GI50 (HCC-2998 colon): 2.31 µM | TGI (HCC-2998 colon): 5.63 µM | GI50 (NCI/ADR-RES ovarian): 3 µM | TGI (NCI/ADR-RES ovarian): 10.6 µM | GI50 (RXF 393 renal): 3.42 µM | TGI (RXF 393 renal): 15.4 µM | GI50 (TK-10 renal): 2.31 µM | TGI (TK-10 renal): 5.52 µM | GI50 (LOX IMVI melanoma): 2.65 µM | TGI (LOX IMVI melanoma): 7.18 µM | GI50 (MDA-MB-231 breast): 2.81 µM | TGI (MDA-MB-231 breast): 7.86 µM | GI50 (NCI-H460 lung): 2.81 µM | TGI (NCI-H460 lung): 7.84 µM | GI50 (K-562 leukemia): 2.43 µM | TGI (K-562 leukemia): 9.51 µM | GI50 (UACC-257 melanoma): 10.5 µM | TGI (UACC-257 melanoma): 25.6 µM | GI50 (SK-MEL-5 melanoma): 5.92 µM | TGI (SK-MEL-5 melanoma): 16 µM | GI50 (SNB-19 CNS): 3.79 µM | TGI (SNB-19 CNS): 15.5 µM | GI50 (SF-539 CNS): 6.08 µM | TGI (SF-539 CNS): 13.5 µM | GI50 (A498 renal): 2.98 µM | TGI (A498 renal): 9.79 µM | GI50 (COLO 205 colon): 2.2 µM | TGI (COLO 205 colon): 4.81 µM

— PubChem BioAssay (NCI)
